This is an account of results in ChEMBL document CHEMBL1201862, “PubChem BioAssay data set” (2004).

Experiment [1] is described as follows: HEK293T cytotoxicity, dose response, cytotoxicity control for miR-122 modulator project, cell-based, inhibitor set, cherry-pick, set 2 (AID 720697). The format is functional.
Experiment [2] deals with T1, High affinity choline transporter 1 (Homo sapiens, UniProt Q9GZV3).
T1 sequence (Q9GZV3 whole entry): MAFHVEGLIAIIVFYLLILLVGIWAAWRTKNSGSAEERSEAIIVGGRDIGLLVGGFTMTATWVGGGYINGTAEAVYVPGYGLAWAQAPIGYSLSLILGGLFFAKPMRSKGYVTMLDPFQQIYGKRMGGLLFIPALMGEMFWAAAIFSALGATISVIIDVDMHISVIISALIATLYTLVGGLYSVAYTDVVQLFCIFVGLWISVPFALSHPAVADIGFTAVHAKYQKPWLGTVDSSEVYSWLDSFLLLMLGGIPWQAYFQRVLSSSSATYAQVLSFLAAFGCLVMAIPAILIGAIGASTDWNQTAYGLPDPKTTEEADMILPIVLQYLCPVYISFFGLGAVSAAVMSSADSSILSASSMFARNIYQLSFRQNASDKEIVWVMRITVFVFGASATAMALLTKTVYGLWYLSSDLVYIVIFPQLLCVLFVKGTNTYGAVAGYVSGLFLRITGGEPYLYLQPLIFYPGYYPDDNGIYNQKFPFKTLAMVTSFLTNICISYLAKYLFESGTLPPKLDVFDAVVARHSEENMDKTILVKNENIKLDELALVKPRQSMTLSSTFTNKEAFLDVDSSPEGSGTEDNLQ
Kind of experiment: CHT inhibitors, dose response, cell-based, 5-point CRC, membrane potential dye (AID 504840). The format is functional.

In experiment [3] the target is Prothrombin (Homo sapiens, UniProt P00734). Kind of experiment: Thrombin 1536 HTS Dose Response Confirmation. [Related pubchem assays: 1046 (Thrombin 1536 HTS; hits were confirmed in this assay)]. It counts as functional.
Experiment [4] can be described thus: inhibitors of Vif binding to APOBEC3G peptide, primary screen, biochemical, TR-FRET, GST-Vif 1-94, biotin-A3G peptide, dose response retest (AID 1117319).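 Also: TR-FRET signal of purified GST-Vif binding a biotinylated A3G peptide; inhibitors lower the FRET signal by blocking Vif and A3G binding.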 It counts as functional.
The target in experiment [5] is 26S proteasome non-ATPase regulatory subunit 14 (Homo sapiens, UniProt O00487). Kind of experiment: inhibition of proteasome subunit RPN11 – biochemical, fluorescence polarization, uHTS hits, confirmation (AID 602368). The format is functional.
Sequence of 26S proteasome non-ATPase regulatory subunit 14 (O00487 whole entry): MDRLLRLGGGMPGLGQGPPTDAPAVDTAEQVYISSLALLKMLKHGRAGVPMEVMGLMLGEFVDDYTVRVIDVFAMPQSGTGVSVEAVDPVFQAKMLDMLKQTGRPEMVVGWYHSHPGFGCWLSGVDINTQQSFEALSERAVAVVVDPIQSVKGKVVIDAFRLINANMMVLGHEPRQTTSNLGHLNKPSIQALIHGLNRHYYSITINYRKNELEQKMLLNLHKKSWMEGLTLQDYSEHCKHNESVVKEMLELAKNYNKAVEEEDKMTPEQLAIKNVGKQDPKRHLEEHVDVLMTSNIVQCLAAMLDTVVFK
Experiment [6] addresses 72 kDa type IV collagenase (Homo sapiens, UniProt P08253). Kind of experiment: Dose Response validation of uHTS RPN11 inhibitor hits using a MMP-2 Fluorescence assay. It counts as functional.
For experiment [7], the target named is Prothrombin (Bos taurus, UniProt P00735). Nature of the experiment: thrombin inhibition, dose response, biochemical, fluorescence polarization, uHTS hits (AID 602369). The format is functional.
A further experiment concerns the target T2, Aspartyl aminopeptidase (Plasmodium falciparum 3D7, UniProt Q8I2J3).
T2 sequence (Q8I2J3 whole entry): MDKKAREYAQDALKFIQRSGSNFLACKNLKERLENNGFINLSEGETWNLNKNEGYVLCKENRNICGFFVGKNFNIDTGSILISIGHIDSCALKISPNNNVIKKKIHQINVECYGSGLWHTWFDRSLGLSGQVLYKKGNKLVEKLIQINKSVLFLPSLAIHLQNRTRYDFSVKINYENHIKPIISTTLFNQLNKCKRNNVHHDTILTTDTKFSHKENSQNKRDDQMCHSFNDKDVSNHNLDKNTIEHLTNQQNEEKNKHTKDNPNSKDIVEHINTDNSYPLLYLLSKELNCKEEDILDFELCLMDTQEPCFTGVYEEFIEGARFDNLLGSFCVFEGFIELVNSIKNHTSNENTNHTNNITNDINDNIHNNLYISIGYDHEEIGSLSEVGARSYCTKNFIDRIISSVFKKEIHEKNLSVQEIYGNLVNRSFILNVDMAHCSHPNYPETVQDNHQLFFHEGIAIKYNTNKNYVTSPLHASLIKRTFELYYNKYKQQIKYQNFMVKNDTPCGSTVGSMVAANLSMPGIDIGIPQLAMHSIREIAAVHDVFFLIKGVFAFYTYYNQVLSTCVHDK

The next experiment deals with Procathepsin L (Homo sapiens, UniProt P07711).
Sequence of Procathepsin L (P07711 whole entry): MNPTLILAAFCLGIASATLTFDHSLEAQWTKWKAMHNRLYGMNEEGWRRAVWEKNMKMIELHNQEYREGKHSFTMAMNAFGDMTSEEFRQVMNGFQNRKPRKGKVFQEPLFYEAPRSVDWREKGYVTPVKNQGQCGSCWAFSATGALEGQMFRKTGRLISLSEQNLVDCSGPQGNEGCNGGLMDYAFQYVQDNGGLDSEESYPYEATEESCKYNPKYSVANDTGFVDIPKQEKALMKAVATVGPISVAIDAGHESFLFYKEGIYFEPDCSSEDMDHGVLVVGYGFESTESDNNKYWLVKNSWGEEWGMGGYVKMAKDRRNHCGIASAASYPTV
A short description of experiment [8]: cytotoxicity in HPDE-C7 cells, cell-based, fluorescence, HTS (AID 430). It counts as functional. The settings on record: Homo sapiens.
Experiment [9] in a line: cytotoxicity in KRAS-transformed pancreatic duct cells, primary screen, cell-based, fluorescence, HTS (AID 431).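 Also: cell line used: HPDE-C7K.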 The format is functional. The conditions noted are these: Homo sapiens.
In experiment [10] the target is T3, RNA-binding protein pos-1 (Caenorhabditis elegans, UniProt G5EF15).
T3 sequence (G5EF15 whole entry): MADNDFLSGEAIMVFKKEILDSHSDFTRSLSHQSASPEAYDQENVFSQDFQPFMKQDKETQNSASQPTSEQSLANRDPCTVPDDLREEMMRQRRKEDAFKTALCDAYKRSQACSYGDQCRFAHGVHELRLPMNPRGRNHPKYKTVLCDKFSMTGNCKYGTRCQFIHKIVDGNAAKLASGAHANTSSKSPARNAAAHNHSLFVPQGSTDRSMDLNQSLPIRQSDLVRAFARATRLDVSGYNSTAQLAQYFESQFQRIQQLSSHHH
Kind of experiment: inhibitors of POS-1/mex-3 RNA binding, dose response, biochemical, fluorescence polarization (AID 1964).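 Also: purified POS-1 fused to maltose binding protein made in E. coli; potency of compounds blocking POS-1 binding to fluorescent RNA.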

Experiment [11] addresses T4, Zinc finger protein mex-5 (Caenorhabditis elegans, UniProt Q9XUB2).
T4 sequence (Q9XUB2 whole entry): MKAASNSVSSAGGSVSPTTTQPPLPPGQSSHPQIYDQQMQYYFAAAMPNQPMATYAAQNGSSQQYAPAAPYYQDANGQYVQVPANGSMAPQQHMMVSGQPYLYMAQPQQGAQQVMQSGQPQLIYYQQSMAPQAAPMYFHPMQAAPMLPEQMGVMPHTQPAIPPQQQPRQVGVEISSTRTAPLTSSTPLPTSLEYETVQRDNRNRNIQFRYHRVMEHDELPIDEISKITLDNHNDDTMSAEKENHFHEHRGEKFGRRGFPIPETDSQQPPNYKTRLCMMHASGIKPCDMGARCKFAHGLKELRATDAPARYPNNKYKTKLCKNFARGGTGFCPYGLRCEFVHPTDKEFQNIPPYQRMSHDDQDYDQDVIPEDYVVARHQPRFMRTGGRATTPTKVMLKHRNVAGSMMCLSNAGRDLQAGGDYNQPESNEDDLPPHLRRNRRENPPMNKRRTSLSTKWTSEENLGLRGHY
Nature of the experiment: MEX-5/TCR-2 RNA interaction inhibitors, dose response, biochemical, C. elegans, fluorescence polarization (AID 1960).

Experiment [12] addresses T5, Carboxy-terminal domain RNA polymerase II polypeptide A small phosphatase 1 (Homo sapiens, UniProt Q9GZU7).
T5 sequence (Q9GZU7 whole entry): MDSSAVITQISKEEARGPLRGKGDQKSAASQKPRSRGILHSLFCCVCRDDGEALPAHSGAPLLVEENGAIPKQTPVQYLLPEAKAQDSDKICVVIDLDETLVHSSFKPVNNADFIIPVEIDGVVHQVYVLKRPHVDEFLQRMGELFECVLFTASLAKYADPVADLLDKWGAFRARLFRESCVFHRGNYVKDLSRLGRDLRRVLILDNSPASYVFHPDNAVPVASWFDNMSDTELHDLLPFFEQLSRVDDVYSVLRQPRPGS
Kind of experiment: inhibitors of CTDSP1, concentration-response testing, biochemical assay, absorbance-based, actives from ultra-high-throughput screening (AID 540297). The format is functional.

A short description of experiment [13]: inhibitors of PGC1a acetylation in cells, dose response, cell-based, cherry-picked samples (AID 720514).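 Also: potency may reflect raised or lowered acetylation signal.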 It counts as functional.

Calls of active or inactive are those of the source.

Sequence of 72 kDa type IV collagenase (P08253 whole entry): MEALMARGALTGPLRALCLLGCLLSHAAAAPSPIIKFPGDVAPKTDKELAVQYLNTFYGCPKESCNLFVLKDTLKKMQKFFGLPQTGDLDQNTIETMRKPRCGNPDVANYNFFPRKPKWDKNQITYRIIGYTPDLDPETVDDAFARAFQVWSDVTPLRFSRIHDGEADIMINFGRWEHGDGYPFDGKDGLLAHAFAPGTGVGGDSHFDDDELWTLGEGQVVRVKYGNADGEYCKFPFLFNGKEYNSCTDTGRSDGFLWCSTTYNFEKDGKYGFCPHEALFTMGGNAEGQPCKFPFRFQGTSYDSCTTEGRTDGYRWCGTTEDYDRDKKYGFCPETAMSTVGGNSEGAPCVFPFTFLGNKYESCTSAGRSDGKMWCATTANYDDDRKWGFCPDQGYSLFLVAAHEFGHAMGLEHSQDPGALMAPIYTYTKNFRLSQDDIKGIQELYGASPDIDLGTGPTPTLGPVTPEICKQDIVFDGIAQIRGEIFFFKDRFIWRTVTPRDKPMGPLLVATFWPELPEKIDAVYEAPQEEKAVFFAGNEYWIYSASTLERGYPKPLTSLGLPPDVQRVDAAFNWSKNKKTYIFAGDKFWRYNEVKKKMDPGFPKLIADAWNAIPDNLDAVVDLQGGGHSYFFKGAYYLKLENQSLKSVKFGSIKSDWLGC

Regarding `COc1cc2nc(C3CCC3)n(NC(=O)C3CCCC(OC)C3)c(=O)c2cc1OC` (stereo unspecified), the AC50 in experiment [1] is 6.2 µM (active).
Turning to `CC1CN(C(=O)CCC(=O)NC(C)c2ccccc2)c2cc(Cl)ccc2O1` (stereo unspecified), in [2], the half-inhibitory concentration (IC50) was 15.1 µM (active).
For `Cc1cc(C)nc(SCc2cc(=O)c(OC(=O)c3ccc(Br)o3)co2)n1`, in experiment [2], the IC50 is 14.5 µM (active).
For `CCOC(=O)c1ccc(/N=C/c2nc(-c3ccccc3)oc2OC(C)=O)cc1`, at Prothrombin [3], the half-inhibitory concentration (IC50) was 0.526 µM (active).
Regarding `COC(=O)Nc1sc2c(c1C(=O)NCc1ccco1)CCCC2`, the concentration for half-maximal inhibition (IC50) in experiment [4] is > 100 µM (active).
For `COc1ccc(C(=O)N2C(=S)NC(=O)/C2=C\c2ccc(C)cc2)cc1`, the figures for the IC50 (in [5]; in experiment [6]; at Prothrombin [7]) were 22.5 µM (active), 23.8 µM (active) and 37.8 µM (active), respectively.
The matching figures for `CN(CC(=O)Nc1ccc(Cl)cc1)C(=O)CCc1nc(O)c2c3c(sc2n1)CCCC3`: 30.7 µM (active), > 100 µM (inactive) and 26.4 µM (active).
In the case of `NCCOc1ccccc1Cc1ccccc1`, the IC50 in [4] was > 100 µM (active).
In the case of `C/C=C/c1ccc([C@H]2[C@@H](CO)N[C@@H]2CN(C(=O)c2ccccc2F)C(C)C)cc1`, the concentration at half-maximal activity (AC50) in [1] is 2.45 µM (active).
For `O=S(=O)(Nn1cnnc1)c1ccccc1`, the IC50 is 3.81 µM (active) at Aspartyl aminopeptidase and > 59.6 µM (not active) at Procathepsin L.
`Cc1c(NS(=O)(=O)c2ccc(Cl)c(C(=O)OCC(=O)NCc3ccco3)c2)c(=O)n(-c2ccccc2)n1C`: the IC50 against Prothrombin [3] was > 50 µM (not active).
On to `CCc1ccc(S(=O)(=O)NC(CC(=O)O)c2ccccc2)cc1` (stereo unspecified), for which the EC50 in [8] and in experiment [9] was > 20 µM (not active) each time.
Regarding `CCOCCCn1c(C)nc2c(c1=O)c1nc3ccccc3nc1n2CCC1=CCCCC1`, the EC50 in experiment [8] and in [9] was > 20 µM (not active) in each case.
For `C/C(=N/NC(=O)c1cc(Cl)ccc1O)C12CC3CC(CC(C3)C1)C2`, in experiment [2], the IC50 is 8.58 µM (active).
Regarding `Cc1ccc(/C=C(\C#N)C(=O)Nc2c(C)cccc2C)s1`, the EC50 in experiment [10] and in experiment [11] was > 300 µM (not active) throughout. For the same molecule, the results for the IC50 (in experiment [5]; in experiment [6]; on Prothrombin [7]) were 13.5 µM (active), > 100 µM (inactive) and 23.5 µM (active), respectively.
With `Cc1cc(C)nc(Nc2ccccc2Br)n1`, the half-maximal inhibitory concentration (IC50) on Prothrombin [3] is > 50 µM (not active).
For `O=C(Nc1ccc(-c2nc3ccccc3s2)c(O)c1)C1=COCCO1`, the IC50 in [12] was 3.39 µM (active); in experiment [5] it was 22.5 µM (active); in experiment [6] it was > 100 µM (inactive); on Prothrombin [7], 91.4 µM (active).
Regarding `O=C(CCN1C(=O)c2ccccc2C1=O)NCc1ccco1`, the 50% inhibitory concentration (IC50) in experiment [4] was > 100 µM (active).
In the case of `COC(=O)c1ccccc1NC(=O)c1cc(-c2cccs2)on1`, the concentration for a half-maximal effect (EC50) in experiment [8] and in experiment [9] was > 20 µM (not active) throughout.
For the molecule `CN1C[C@H]2[C@@H](c3ccccc31)[C@@H](CO)N2C(=O)C1CCOCC1`, the AC50 in experiment [1] was < 0.195 µM (active).
Take `CC(=O)Nc1ccc(S(=O)(=O)Nc2nnc(C(C)C)s2)cc1`: the IC50 in experiment [4] was > 100 µM (active).
Same read-out and setting: for `COc1cccc(-n2c(Cc3cc(O)nc(O)n3)nnc2SCC(=O)NC2CCCC2)c1` the value was > 100 µM (active).
For the molecule `Cc1c(OCC(N)=O)ccc2c(-c3ccccc3)cc(=O)oc12`, the values for the half-maximal inhibitory concentration (IC50) (in experiment [5]; in experiment [6]; at Prothrombin [7]) were 57.7 µM (active), 57.2 µM (active) and 78.1 µM (active), respectively.
For the molecule `C=CCNc1nc2ccccc2nc1NS(=O)(=O)c1ccc(Br)cc1`, the concentration for half-maximal inhibition (IC50) in experiment [2] was 13.2 µM (active).
With `Cc1nc2ccccn2c1C(=O)NNC(=O)Nc1ccccc1`, the IC50 was 1.05 µM (active) on Aspartyl aminopeptidase and > 59.6 µM (not active) against Procathepsin L.
For `COc1ccc(NC(C)(C)c2nnnn2-c2c(C)cccc2C)cc1`, the IC50 in experiment [2] is 25.1 µM (active).
`Cc1noc(C)c1CSc1nnc(-c2cccnc2)n1C1CCCCC1C` (stereo unspecified): in experiment [13], the AC50 is 28.4 µM (active).
Take `COc1c(C)cc(C(=O)C2CCCN(S(=O)(=O)c3c(C)noc3C)C2)cc1C` (stereo unspecified): the IC50 against Prothrombin [3] is on record as > 50 µM (not active).
In the case of `Cc1ccccc1CCNCc1cc2cccc(C)c2nc1O`, the IC50 in experiment [2] is 10 µM (active).
For `COc1cc(CN2C[C@@H]3N[C@H](C2)[C@@H]3c2ccc(-c3ccccc3C)cc2)cc(OC)c1`, the AC50 in experiment [13] is 6.84 µM (active).
With `Cc1nnc(NNS(=O)(=O)c2ccc(Cl)cc2)[nH]c1=O`, the half-inhibitory concentration (IC50) at Aspartyl aminopeptidase is 1.57 µM (active); against Procathepsin L, > 59.6 µM (not active).
Turning to `O=C(c1cnn2cccnc12)N1CCN(Cc2ccc3c(c2)OCO3)CC1`, the IC50 in experiment [4] is > 100 µM (active).
